Columns and labels:
gastrin receptor = target: T1, gastrin receptor (Cavia porcellus, UniProt H0VZC5); assay: Gastrin receptor antagonism, displacement of 125I-labeled gastrin, gastric (fundic) gland cells; assay type: binding, guinea pig (male Hartley); settings: guinea pig gastric glands, 125I-gastrin 0.2 nM, 30 min, 25 °C; read-out: Receptor Gastrin (IC50)
T1 construct: stomach was extracted from each animal immediately, from which gastric glands were prepared; from tissue; host or cells: gastric (fundic) glands of male Hartley guinea pigs
T1 sequence (H0VZC5 1-426): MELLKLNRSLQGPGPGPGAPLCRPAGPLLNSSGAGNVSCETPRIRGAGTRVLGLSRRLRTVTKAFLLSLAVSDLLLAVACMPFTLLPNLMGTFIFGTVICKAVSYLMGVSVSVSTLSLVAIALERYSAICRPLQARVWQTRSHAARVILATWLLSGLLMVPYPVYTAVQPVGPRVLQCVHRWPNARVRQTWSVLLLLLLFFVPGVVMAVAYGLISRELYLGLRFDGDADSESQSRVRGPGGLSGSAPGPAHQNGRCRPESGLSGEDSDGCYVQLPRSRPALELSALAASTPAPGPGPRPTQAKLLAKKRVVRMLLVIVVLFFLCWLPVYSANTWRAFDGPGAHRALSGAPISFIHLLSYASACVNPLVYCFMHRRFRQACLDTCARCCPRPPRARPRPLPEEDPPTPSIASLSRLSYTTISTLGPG
Protocol: (§1) Male Hartley guinea pig (450-600 g) or male ddY mouse (24-30 g) were used.
(1) Gastrin Receptor Antagonism
Preparation of gastric glands:
Male Hartley guinea pigs (450-600 g) were killed by bleeding and stomach was extracted from each animal immediately, from which gastric glands were prepared.
Preparation of test compounds and procedures of displacing assay
A 1M solution of a compound to be tested in DMSO is prepared and diluted with 50% DMSO to obtain a ten-fold dilution series.
The mixture is incubated for 30 min at 25° C., centrifuged at 2000 rpm for 5 min and the supernatant is removed by aspiration. To the pellet is added ice-cooled incubation buffer and mixed gently, followed by an immediate centrifugation and removal of the supernatant by aspiration. The radioactivity is counted on gamma counter. The same procedure was repeated using 50% DMSO solution or human gastrin I (final concentration, 2 μM) instead of a solution of test compound so as to obtain the control value regarding total binding or the value regarding non-specific binding, respectively. […]
(§2) specific binding of control=total binding (cpm)-non-specific binding (cpm); and specific binding of test compound=[…]-non-specific binding (cpm).

CCK-B receptor = target: T2, CCK-B receptor (Mus musculus, UniProt P56481); assay: CCK-B receptor antagonism, displacement of [3H]CCK-8, cerebral cortex crude membrane; assay type: binding, mouse (male ddY); settings: mouse cerebral cortex membrane, [3H]CCK-8 1 nM, 90 min, 25 °C; read-out: Receptor CCK-B (IC50)
T2 construct: crude membrane specimen from mouse cerebral cortex; from tissue; host or cells: cerebral cortex of male ddY mice, crude membranes
T2 sequence (P56481 1-453): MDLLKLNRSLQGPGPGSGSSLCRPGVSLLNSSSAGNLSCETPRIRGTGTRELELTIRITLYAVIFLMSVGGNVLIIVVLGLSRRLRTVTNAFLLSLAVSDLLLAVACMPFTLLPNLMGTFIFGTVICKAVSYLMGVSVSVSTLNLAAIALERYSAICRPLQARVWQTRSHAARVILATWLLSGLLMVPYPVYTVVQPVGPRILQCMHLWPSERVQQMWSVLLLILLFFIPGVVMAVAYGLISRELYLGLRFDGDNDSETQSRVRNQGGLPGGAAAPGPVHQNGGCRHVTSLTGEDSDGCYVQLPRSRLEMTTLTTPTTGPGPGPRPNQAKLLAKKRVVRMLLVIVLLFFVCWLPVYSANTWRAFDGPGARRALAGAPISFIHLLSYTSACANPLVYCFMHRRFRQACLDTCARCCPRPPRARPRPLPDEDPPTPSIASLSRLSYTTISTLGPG
Protocol: as §1
(§3) (2) CCK-A Receptor Antagonism and CCK-B Receptor Antagonism
(§4) Preparation of CCK receptor preparations
(§5) Male ddY mice (24 to 30 g) were killed by decapitation and cerebral cortex (CCK-B) and pancreas (CCK-A) were extracted immediately. Each of cerebral cortex and pancreas was mixed with 50 mM Tris-HCl buffer (pH 7.4) and homogenized with a teflon-glass homogenizer and polytron homogenizer to obtain crude membrane specimens.
(§6) Preparation of test compounds and procedures of displacing assay A 1M solution of a compound to be tested in DMSO is prepared and diluted with 50% DMSO to obtain a ten-fold dilution series.
(§7) The reaction is initiated by the addition of crude membrane specimen to solutions of different concentration each containing [^3 H]CCk-8 (final concentration, 1 nM). The mixture is incubated for 90 min at 25° C., filtered through glass filter with aspiration and washed with a cooled 50 mM Tris buffer. After the addition of Aquazol-2 cocktail the radioactivity is counted. The same procedure was repeated using 50% DMSO solution or Ceruletide (final concentration, 1 μM) instead of a solution of test compound so as to obtain the control value regarding total binding or the value regarding non-specific binding, respectively. […]
as §2

CCK-A receptor = target: T3, CCK-A receptor (Mus musculus, UniProt O08786); assay: CCK-A receptor antagonism, displacement of [3H]CCK-8, pancreas crude membrane; assay type: binding, mouse (male ddY); settings: mouse pancreas membrane, [3H]CCK-8 1 nM, 90 min, 25 °C; read-out: Receptor CCK-A (IC50)
T3 construct: crude membrane specimen from mouse pancreas; from tissue; host or cells: pancreas of male ddY mice, crude membranes
T3 sequence (O08786 1-436): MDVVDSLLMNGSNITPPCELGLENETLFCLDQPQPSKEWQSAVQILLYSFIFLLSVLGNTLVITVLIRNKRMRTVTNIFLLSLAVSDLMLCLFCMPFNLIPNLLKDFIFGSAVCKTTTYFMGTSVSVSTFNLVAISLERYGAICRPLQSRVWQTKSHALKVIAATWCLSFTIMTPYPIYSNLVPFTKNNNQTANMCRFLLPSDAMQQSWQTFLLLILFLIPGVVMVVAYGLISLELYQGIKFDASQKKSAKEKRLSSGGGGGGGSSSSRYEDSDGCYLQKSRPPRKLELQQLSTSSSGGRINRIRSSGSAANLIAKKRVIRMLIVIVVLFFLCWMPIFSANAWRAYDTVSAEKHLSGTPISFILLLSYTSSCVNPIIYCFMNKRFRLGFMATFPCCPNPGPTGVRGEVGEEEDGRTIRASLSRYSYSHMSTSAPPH
Protocol: as §1, §3, §4, §5, §6, §7, §2

gastric acid secretion = assay: Inhibitory effect on gastric acid secretion by Schild method (pentagastrin-stimulated); assay type: in vivo, rat (male Sprague Dawley); settings: intraduodenal, rat, read-out: Inhibitory Effect on acid secretion (Schild method), percent inhibition
Description: Evaluation of Inhibitory Effect on Gastric Acid Secretion by Schild Method
Twenty four hour starved (ad libitum for water) male Sprague Dawley rats (8-week-old) were anesthetized with urethane (1.5 g/kg S.C.) and kept breathing with esophagus cannulas. After laparotomy, esophagus cannulas were inserted orally up to proventriculus and ligated around gastric cardiac. Perfusion cannulas were inserted from duodenum into stomach and ligated around pylorus. Another cannulas were placed into duodenum and ligated for administration of drug. After sutra of abdomen, stomach was perfused via the esophagus cannulas with physiological saline (37° C.) while collecting perfusate for a 15 min interval. The perfusate was subjected to titration with 0.001 N NaOH solution to determine the acidity. When the basal acid secretion became stable, pentagastrin ([…]) was administered in a sustained manner via common carotid vein for about 90 min until the acid secretion reached approximately the highest level, when a test compound (0.5% M.C. suspension) was administered into duodenum through cannulas. The perfusate was collected for a 15 min interval to monitor the acid secretion for 90 min. The percent inhibition was calculated as follows:
Percent inhibition (%)=100×(A-B)/(C-B)
A: the minimum value of total acidity observed after the administration of a test compound;
B: the total acidity obtained immediately before the administration of pentagastrin; and
C: the total acidity obtained immediately before the administration of a test compound.

SMILES	IC50 (gastrin receptor) [nM]	IC50 (CCK-B receptor) [nM]	IC50 (CCK-A receptor) [nM]	inhibition in vivo at 0.3 mg/kg (gastric acid secretion) [%]	inhibition in vivo at 0.1 mg/kg (gastric acid secretion) [%]
O=C(Nc1cccc(-c2nnn[nH]2)c1)NC1C(=O)N(CC(=O)N2CCCC2)c2ccccc2N(CC(=O)N2CCCC2)C1=O [Compound 18-iv]	4	38	3600	65	
Cc1cccc(NC(=O)NC2C(=O)N(CC(=O)c3ccco3)c3ccccc3N(CC(=O)c3ccco3)C2=O)c1 [Compound 8f, 1,5-Bis-(2-furylcarbonylmethyl)-3-{N'-(m-tolyl)-ureido}-1H-1,5-benzodiazepine-2,4(3H,5H)-dione]	3	17	120	73	
O=C(Nc1cccc(-c2nnn[nH]2)c1)NC1C(=O)N(CC(=O)C2CC2)c2ccccc2N(CC(=O)C2CC2)C1=O [Compound 17-iv, 1,5-Bis-(cyclopropylcarbonylmethyl)-3-(N'-(m-(tetrazoyl)phenyl)ureido)-1H-1,5-benzodiazepine-2,4(3H,5H)-dione]	2	8	2900		44
O=C(O)Cc1cccc(NC(=O)NC2C(=O)N(CC(=O)N3CCCC3)c3ccccc3N(CC(=O)N3CCCC3)C2=O)c1 [Compound 18-xiii, 1,5-Bis-(pyrrolidinocarbonylmethyl)-3-(N'-(m-(carboxymethyl)phenyl)ureido)-1H-1,5-benzodiazepine-2,4(3H,5H)-dione]	7	29	10500	26	
CCOC(=O)COc1cccc(NC(=O)NC2C(=O)N(CC(=O)C3CC3)c3ccccc3N(CC(=O)C3CC3)C2=O)c1 [Compound 17-v, 1,5-Bis-(cyclopropylcarbonylmethyl)-3-(N'-(m-(carboethoxymethoxy)phenyl)ureido)-1H-1,5-benzodiazepine-2,4(3H,5H)-dione]	16	180	3600	59	
Cc1cccc(NC(=O)NC2C(=O)N(CC3CC3)c3ccccc3N(CC3CC3)C2=O)c1 [Compound 8o, 1,5-Bis-(cyclopropylmethyl)-3-{N'-(m-tolyl)-ureido}-1H-1,5-benzodiazepine-2,4(3H,5H)-dione]	12	23	860	60	
O=C(O)COc1cccc(NC(=O)NC2C(=O)N(CC(=O)C3CC3)c3ccccc3N(CC(=O)C3CC3)C2=O)c1 [Compound 17-vi, 1,5-Bis-(cyclopropylcarbonylmethyl)-3-(N'-(m-(carboxymethoxy)phenyl)ureido)-1H-1,5-benzodiazepine-2,4(3H,5H)-dione]	3	16	4400	22	
O=C(O)CSc1cccc(NC(=O)NC2C(=O)N(CC(=O)C3CC3)c3ccccc3N(CC(=O)C3CC3)C2=O)c1 [Compound 17-ix, 1,5-Bis-(cyclopropylcarbonylmethyl)-3-(N'-(m-(carboxymethylthio)phenyl)ureido)-1H-l,5-benzodiazepine-2,4(3H,5H)-dione]	0.6	2	500		74
Cc1cccc(NC(=O)NC2C(=O)N(CC(=O)C3CC3)c3ccccc3N(CC(=O)C3CC3)C2=O)c1 [Compound 8h, 1,5-Bis-(cyclopropylcarbonylmethyl)-3-(N'-(m-tolyl)ureido)-1H-1,5-benzodiazepine-2,4(3H,5H)-dione]	5	18	380	81	
CCOC(=O)c1cccc(NC(=O)NC2C(=O)N(CC(=O)C3CC3)c3ccccc3N(CC(=O)C3CC3)C2=O)c1 [Compound 17-i]	7	140	1350	44	
Cc1cccc(NC(=O)NC2C(=O)N(Cc3cccc(N)c3)c3ccccc3N(Cc3cccc(N)c3)C2=O)c1 [Compound 8r]	18	21	760	46	
O=C(Nc1cccc(SCc2nnn[nH]2)c1)NC1C(=O)N(CC(=O)C2CC2)c2ccccc2N(CC(=O)C2CC2)C1=O [Compound 17-xvii]	< 1	1	1300		30
CCOC(=O)CSc1cccc(NC(=O)NC2C(=O)N(CC(=O)C3CC3)c3ccccc3N(CC(=O)C3CC3)C2=O)c1 [Compound 17-viii, 1,5-Bis-(cyclopropylcarbonylmethyl)-3-(N'-(m-(carboethoxymethylthio)phenyl)ureido)-1H-1,5-benzodiazepine-2,4(3H,5H)-dione]	2	6	460	76	
CC(=O)NS(=O)(=O)c1cccc(NC(=O)NC2C(=O)N(CC(=O)C3CC3)c3ccccc3N(CC(=O)C3CC3)C2=O)c1 [Compound 17-xi, 1,5-Bis-(cyclopropylcarbonylmethyl)-3-(N'-(m-(acetylsulfamoyl)phenyl)ureido)-1H-1,5-benzodiazepine-2,4(3H,5H)-dione]	6	115	> 10000	39	

Reference: patent US5776929A, “Benzodiazepine derivative” (Shionogi & Co., Ltd., priority 1993, dated 1998)
